Assay results from patent US20200101182A1, “METHODS FOR INACTIVATING, ON MEDICAL INSTRUMENTS AND DEVICES, VIRUSES CONTAINING RNA AND DNA, AND APPARATUSES FOR IMPLEMENTATING SAME” (priority 2014, published 2020).

Tested on: HBV
Experiment: Photodynamic inactivation of HBV in plasma by methylene blue solution under monochromatic light; HBV DNA in lymphocytes by PCR
Format: cell-based, human
Conditions: for amount of HBV DNA particles in lymphocytes, computed by PCR: HBV containing plasma, 90 minutes
Experimental: Medical instruments are placed in the cuvette 5 within the aforementioned aqueous solution of methylene blue 6, and the aforementioned door closed. The medical devices in the chamber 4 are then subjected to irradiation by emitters 7 of light energy, such as monochromatic radiation with a maximum specific content of monochromatic light with a wavelength of 590 nm or 660 nm, with a total light output of not less than 280 lm. The exposure time may be set to 90 minutes, e.g., using the aforesaid timer 9. After treatment, in the device 1, the viruses remaining on the medical instruments are completely inactivated, i.e., the viruses lose their ability to infect cells of the human body. Instruments so sterilized are then reliably reused without risk of infecting patients.
Verification steps of the employment of the claimed apparatuses and methods within an installation and carried out on in a biological environment contaminated by viruses, such as blood plasma.
Monochromatic radiation emitters 7 with a range of 590±2 nm are employed. After treatment in the inventive installation method, i.e., within device 1, samples of HBV containing plasma were treated for 90 minutes in a 0.01% solution of methylene blue, and afterward the amount of lymphocytes, computed by Polymerase Chain Reaction (PCR), of HBV DNA particles was zero, i.e., they were not found.
Monochromatic radiation emitters 7 with a range of 590±2 nm are employed. After treatment in the device 1, samples of HBV containing plasma were treated for 90 minutes in a 0.02% solution of methylene blue. As above, the amount of lymphocytes, computed by PCR, of HBV DNA particles were not found.
Monochromatic radiation emitters 7 with a range of 660±2 nm were employed. After treatment in the device 1, as set forth hereinabove, samples of HBV containing plasma were treated for 90 minutes in a 0.01% solution of methylene blue.
Monochromatic radiation emitters 7 with a range of 660±2 nm were employed.

CN(C)c1ccc2nc3ccc(=[N+](C)C)cc-3sc2c1 [methylene blue]
HBV inactivation (0.01% methylene blue solution, emitter range 588-592 nm): full effect | HBV inactivation (0.01% methylene blue solution, emitter range 658-662 nm): full sterilization treatment effect was reached | HBV inactivation (0.02% methylene blue solution, emitter range 588-592 nm): full effect | HBV inactivation (0.02% methylene blue solution, emitter range 658-662 nm): full effect | amount of HBV DNA particles in lymphocytes, computed by PCR (0.01% solution of methylene blue, emitters 590±2 nm): zero | amount of HBV DNA particles in lymphocytes, computed by PCR (0.01% solution of methylene blue, emitters 660±2 nm): found no HBV DNA particles | amount of HBV DNA particles in lymphocytes, computed by PCR (0.02% solution of methylene blue, emitters 590±2 nm): not found | amount of HBV DNA particles in lymphocytes, computed by PCR (0.02% solution of methylene blue, emitters 660±2 nm): no lymphocytes, computed by PCR, of the HBV DNA particles were found
